Results on seven compounds are retold here after patent US20160031927A1 (ASAVI, LLC, priority 2013, published 2016).

Like-named read-outs stand apart in the source and are kept apart here. A value given as a limit tells only on which side of the number the result lay.

Data set [1] has as its system subgenomic RNA-replicon HCV (genotype 1b). Put plainly: Antiviral activity in Huh7 cells with subgenomic HCV RNA-replicon, ELISA on viral cor-antigen (genotype 1b). It counts as cell-based. On the procedure:
(§1) Antiviral activity (EC50) of nucleoside inhibitors of HCV RNA-polymerase NS5B of the general formula 1, 2 and 3 (further—test compounds) was determined in the human hepatoma cell line Huh7, comprising subgenomic RNA-replicon HCV (genotype 1b, 1a and 2a). For quantitative estimation of viral replication was used a version of immune test ELISA on viral cor-antigen in 96-well plate. Cytotoxicity of the compounds was estimated in parallel regime. As a reference substance was used PSI-7977. Cells Huh7 were seeded in 96-well plate (7.5×10^3 cells to each well in 100 μl of culture medium). Solutions of the tested compounds in DMEM medium {DMEM 1×; Source: Cellgro; Catalogue: 10-013-CV} were prepared immediately before use. Eleven serial three fold dilutions with concentrations from 20 nM to […] were prepared. In 4 hours after seeding, serial dilutions of the compounds were added to the cells (100 μl to each well). Final concentration of tested compounds was varied from 10 nM to 0.1 pM, and DMSO—0.5%. If it was necessary, higher concentrations of the test compounds were investigated. Each dilution of the compound was tested on two identical wells. Then the cells were incubated for three days at 37° C./5% CO2 and fixed by addition of acetone/methanol (1:1) mixture in amount of 250 μl/well. In 1 min the cells were washed 3 times with PBS (Phosphate Buffered Saline) solution. Then the cells were blocked by addition of 10% fetal calf serum in PBS solution in amount of 150 μl/well for 1 h at room temperature. After that the cells were incubated with mouse monoclonal antibodies to cor-antigen HCV, clon C7-50 (Source: Affinity BioReagents; Catalogue: MA1-080) (100 μl/well, working dilution—1:500 in 10% fetal calf serum in PBS solution) for 2 h at 37° C. The cells were washed 6 times with PBS/0.05% Tween 20 solution, then, they were incubated for 1 h with goat anti-mouse immunoglobulin antibodies (conjugated with horseradish peroxidase, 100 μl/well, working dilution—1:2500 in 10% fetal calf serum in PBS solution). The cells were washed 6 times with PBS/0.05% Tween 20 solution, once with PBS solution, after that substrate (1 tablet of o-phenylenediamine (oPD)+12 ml citrate/phosphate buffer+5 μl 30% H2O2) in amount of 100 μl/well was added. The plates were kept for 30 min in the dark at room temperature. The reaction was arrested by the adding 2N H2SO4 in amount of 100 μl/well, and optical density (at wavelength 490 nm) was measured by means of multiscan plate reader Victor3 V 1420 (Perkin Elmer). IC50 values (concentration of test compound, lowering the level of virus RNA-replicon by 50%) for every tested compound were calculated using XLfit 4 program.
(Replicon systems follow genome replication, usually without infectious particles.)

The test system of data set [2] is subgenomic RNA-replicon HCV (genotype 2a). Put plainly: Antiviral activity in Huh7 cells with subgenomic HCV RNA-replicon, ELISA on viral cor-antigen (genotype 2a). Type of data set: cell-based. On the procedure: as §1
Data set [3] in a line: Cytotoxicity determination, ATPLite kit. It counts as cell-based, human. Particulars: human; Huh7 cells, genotype 1b, 10% FBS. On the procedure:
(§2) Cytotoxicity of the test compounds (CC50) was investigated in experiments on the human hepatoma cell line Huh7. Metabolic activity of cells was determined using ATPLite kit (Perkin Elmer, Boston, USA) in accordance with manufacturer instructions. Cytotoxic action was estimated by seeding the cells into black microplate with transparent bottom (96 wells, 10^4 cells to each well). Three independent repeats were used for each test compound. The tested compounds were added in 18 h, after that the cells were incubated together with the compounds for 96 h. Each well was washed two times with phosphate buffered saline (0.2 ml/well) and then the cells were lysed by adding cell buffer (50 μl/well) (all mentioned reagents are included in ATPLite kit). The microplate was incubated for 5 min on a rotating platform at 600 r/min, after that 50 μl of substrate solution (a part of ATPLite kit) was added into each well. The microplate was incubated for additional 5 min on a rotating platform at 600 r/min, kept for 10 min in the dark; after that luminescence was measured using TopCount NXT instrument (Packard, Perkin Elmer). CC50 Value corresponding to concentration of tested compound at which 50% of cells were ruined was used as quantitative characteristic for cytotoxicity estimation. Calculation of CC50 value: for calculation of inhibition effectiveness (% Inh) the following equation was used: % Inh=[(L^pos−L^ex)/L^pos−L^neg)]*100%, where L^pos—positive control, luminescence in the wells with cells without compounds; L^neg—negative control, luminescence in the wells with medium without cells; L^ex—luminescence in wells with a compound of definite concentration. Then, CC50 values were calculated using XLfit 4 program.

Data set [4] has as its system subgenomic RNA-replicon HCV (genotype 1a). The data set can be described thus: Antiviral activity in Huh7 cells with subgenomic HCV RNA-replicon, ELISA on viral cor-antigen (genotype 1a). Type of data set: cell-based. On the procedure: as §1
Data set [5] relates to human hepatoma cell line Huh7. Put plainly: Cytotoxicity determination, ATPLite kit. Type of data set: cell-based. Particulars: Huh7 cells, genotype 1b, 10% FBS. On the procedure: as §2
A general note: Cellular ATP, detected with luciferase, serves as a proxy for viable cell number.

The test system of data set [6] is viral hepatitis C. Particulars: together with Daclatasvir; previously untreated patients; without interferon and Ribavirin; intermediate data; cited from earlier work.
Setting [7] is: Hepatitis C virus, Huh-7, read-out: EC50, HCV genotype 1b.
Where [8] appears, read: Hepatitis C virus, Huh-7, Huh7 replicon, genotype 2a, 10% FBS, read-out: EC50, HCV genotype 2a.
[9] abbreviates: Hepatitis C virus, Huh-7, Huh7 replicon, genotype 1a, 10% FBS, read-out: EC50, HCV genotype 1a.
[10] abbreviates: Huh7 replicon, genotype 1b, 10% FBS, read-out: EC50, HCV genotype 1b.
Where [11] appears, read: Huh7 replicon, genotype 2a, 10% FBS, read-out: EC50, HCV genotype 2a.
Where [12] appears, read: Huh7 replicon, genotype 1a, 10% FBS, read-out: EC50, HCV genotype 1a.

What is called EC50 is the concentration that produces a half-maximal response. For orientation: CC50 means the concentration at which the toxic effect on the cells reaches its halfway point. Low values mean greater toxicity to the cells, high ones lower toxicity to the cells. With `CC(C)OC(=O)[C@H](C)NP(=O)(OC[C@H]1O[C@@H](n2ccc(NC(=O)CN(C)C)nc2=O)C(F)(F)[C@@H]1O)Oc1ccccc1` (stereo partly drawn) [1.1.2(1), iso-propyl (S)-2-({(2R,3R,5R)-5-[4-(2-dimethylamino-acetylamino)-2-oxo-2H-pyrimidin-1-yl]-4,4-difluoro-3-hydroxy-tetrahydro-furan-2-ylmethoxy]-phenoxy-phosphorylamino}-propionate], the 50% effective concentration (EC50) was found to be 35 nM in data set [1] (setting [7]), 116 nM in data set [2] (setting [8]) and 106 nM in data set [4] (setting [9]). This compound also gave a CC50 at 96 h in data set [3] of more than 10000 nM.
Turning to `CC(C)OC(=O)[C@H](C)NP(=O)(OC[C@H]1O[C@@H](n2ccc(NC(=O)[C@H](NC(=O)OC(C)(C)C)C(C)C)nc2=O)C(F)(F)[C@@H]1O)Oc1ccccc1` (some centres unmarked) [1.1.2(2)], the EC50 in data set [1] (setting [7]) worked out at 60.6 nM; in data set [2] (setting [8]), 78.9 nM; in data set [4] (setting [9]), 95.6 nM. Besides, the CC50 at 96 h in data set [3] is more than 10000 nM.
Take `CC(C)OC(=O)C(C)NP(=O)(OCC1OC(n2ccc(NC(=O)C(NC(=O)OC(C)(C)C)C(C)C)nc2=O)C(F)(F)C1O)Oc1ccccc1` (centres unmarked) [1.1.2(3)]: the EC50 in data set [1] (setting [7]) is 60.9 nM; in data set [2] (Hepatitis C virus, Huh-7, read-out: EC50, HCV genotype 2a), 69.4 nM; in data set [4] (Hepatitis C virus, Huh-7, read-out: EC50, HCV genotype 1a), 182 nM. The compound further had a CC50 at 96 h in data set [3] of more than 10000 nM.
Take `CC(C)OC(=O)[C@H](C)NP(=O)(OC[C@H]1OC(n2ccc(NC(=O)[C@@H]3CCCN3C)nc2=O)C(F)(F)[C@@H]1O)Oc1ccc(Cl)cc1` (some centres unmarked) [1.1.2(6)]: the values for the concentration for a half-maximal effect (EC50) in data set [1] (setting [7]), in data set [2] (setting [8]) and in data set [4] (setting [9]) were 14.4 nM, 79.3 nM and 124 nM, respectively. The compound also registered a CC50 at 96 h in data set [3] of more than 10000 nM.
With `CC(C)OC(=O)[C@H](C)N[P@](=O)(OC[C@H]1O[C@@H](n2ccc(=O)[nH]c2=O)[C@](C)(F)[C@@H]1O)Oc1ccccc1` [PSI-7977, iso-propyl (S)-2-{(S)-[(2R,3R,4R,5R)-5-(2,4-dioxo-3,4-dihydro-2H-pyrimidin-1-yl)-4-fluoro-3-hydroxy-4-methyl-tetrahydro-furan-2-ylmethoxy]-phenoxy-phosphorylamino}-propanoate, reference compound], the EC50 in data set [1] (setting [10]) turned out to be 91.8 nM; in data set [2] (setting [11]), 88.4 nM; in data set [4] (setting [12]), 292 nM. The CC50 in data set [5] was more than 10000 nM. Moreover, the “positive result in patients” value in data set [6] is on record as 100%.
For the compound `CC(C)OC(=O)[C@H](C)NP(=O)(OC[C@H]1OC(n2ccc(N)nc2=O)C(F)(F)[C@@H]1O)Oc1ccccc1` (stereo partly drawn) [compound 2, (S)-iso-propyl 2-((((2R,3R)-5-(4-aminooxopyrimidin-1(2H)-yl)-3-hydroxy-2-4,4-difluoro-tetrahydrofuran-2-yl)methoxy)(phenoxy)phosphorylamino)propanoate], the EC50 turned out to be 13.9 nM in data set [1] (setting [10]), 57.2 nM in data set [2] (setting [11]) and 114 nM in data set [4] (setting [12]). Further, the CC50 in data set [5] was more than 10000 nM.
Consider `CC(=O)O[C@@H]1[C@@H](COP(=O)(N[C@@H](C)C(=O)OC(C)C)Oc2ccccc2)OC(n2ccc(N)nc2=O)C1(F)F` (stereo partly drawn) [compound 3, (S)-iso-propyl 2-((((2R,3R)-3-acetoxy-5-(4-amino-2-oxopyrimidin-1(2H)-yl)-4,4-difluoro-tetrahydrofuran-2-yl)methoxy)(phenoxy)phosphorylamino)propanoate], for which the concentration giving a half-maximal response (EC50) in data set [1] (setting [7]) came to 15.7 nM; in data set [2] (setting [8]) it was 61 nM; in data set [4] (setting [9]), 141 nM. In data set [3], this compound yielded a CC50 at 96 h of more than 10000 nM.
